{
  "source": "patent US11980185B2",
  "about": "“Bioflavonoid compositions and their use for water purification and food preservation” (Citrox Biosciences Limited, priority 2018, dated 2024)",
  "key": {"Escherichia coli [1]": {"test_system": "Escherichia coli", "assay": "Direct exposure growth inhibition of mini cultures by turbidity (MIC)", "assay_type": "cell-based", "settings": "5 hours at 37° C.", "procedure": "Growth inhibition was monitored by measuring turbidity of mini cultures after 5 hours of aerobe incubation at 37° C. under agitation. Solutions were diluted to the half in cascade."}, "Escherichia coli [2]": {"test_system": "Escherichia coli", "assay": "Pretreatment of high binding plates, growth inhibition by turbidity", "assay_type": "cell-based", "protocol": "High Binding plates were pre-treated with 0.1 mL of pure Citrox/ε-Polylysine solutions incubated 60′ at room temperature. The concentrations of Citrox range from 0.06% to 4%. The ε-Polylysine concentrations range from 30 mg/L to 120 mg/L. The wells have been emptied and rinsed with 0.2 mL bi-distilled water. 0.2 mL of a diluted Escherichia coli culture (turbidity: 5 mOD at 600 nm) were given to the pre-treated wells and incubated for 3 hours at 37° C. Turbidity were measured at 600 nm and percentage of growth inhibition in comparison to untreated well calculated (FIG. 1)."}, "Streptococcus mutans": {"test_system": "Streptococcus mutans", "assay": "Inhibition zone assay on BHI agar plate", "assay_type": "cell-based", "settings": "48 h at 37° C. anaerobe", "protocol": "The antibacterial activity of ε-polylysine was semi-quantitatively assessed in a inhibition zone assay. 0.1 mL of a confluent Streptococcus mutans culture was spread over a Brain Heart Infusion (BHI) agar plate. Filter platelets (5 mm diameter) soaked with 0.01 mL substance were applied on plate. Plates were incubated 48 h at 37° C. under anaerobe conditions. The diameter of outer limit of the inhibition zones were measured, the diameter of the platelet deduced and the half result considered the radius of inhibition rings. Concentrations were tested in triplicate and their results averaged."}, "Glucose oxidase": {"biological_target": "Glucose oxidase (Aspergillus niger, UniProt P13006)", "sequence (P13006 17-605)": "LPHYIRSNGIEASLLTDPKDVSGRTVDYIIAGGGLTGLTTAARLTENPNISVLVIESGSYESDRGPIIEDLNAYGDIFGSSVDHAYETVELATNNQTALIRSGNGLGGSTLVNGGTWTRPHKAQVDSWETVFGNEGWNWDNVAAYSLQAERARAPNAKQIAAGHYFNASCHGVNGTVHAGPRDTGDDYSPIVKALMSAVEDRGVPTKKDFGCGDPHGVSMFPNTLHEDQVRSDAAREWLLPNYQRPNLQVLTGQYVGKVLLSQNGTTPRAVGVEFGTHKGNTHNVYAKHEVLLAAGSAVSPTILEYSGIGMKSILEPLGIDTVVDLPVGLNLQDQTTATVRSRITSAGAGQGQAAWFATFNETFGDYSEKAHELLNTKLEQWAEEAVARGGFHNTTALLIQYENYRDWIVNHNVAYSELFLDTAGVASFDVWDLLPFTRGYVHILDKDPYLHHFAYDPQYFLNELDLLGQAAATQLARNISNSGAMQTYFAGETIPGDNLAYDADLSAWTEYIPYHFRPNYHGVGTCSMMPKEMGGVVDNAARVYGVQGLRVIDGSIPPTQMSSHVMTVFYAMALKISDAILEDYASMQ", "assay": "Immobilisation of glucose oxidase onto silicate, residual activity in solution", "settings": "0.25 mg/mL, 2 mg/mL silicate, artificial saliva buffer, FIG. 3", "protocol": "0.5 mg/mL glucose oxidase enzyme was incubated for 15 minutes at room temperature in an artificial saliva buffer composition including:\nwith 2 mg/mL silicate and 0.25 mg/mL of an amino acid based compound, bovine serum albumin (BSA), lysine or ε-polylysine. The mixture was centrifuged in order to pellet the silicate and the supernatant tested for its glucose oxidase activity in presence of glucose, lactoperoxidase and a chromogen substrate (ABTS). The resulting activities were compared with the enzyme incubated with silicate in absence of an amino acid compound (FIG. 3)."}, "[3]": {"test_system": "chloroquine-sensitive Plasmodium chabaudi", "assay": "Malaria infection in mice", "assay_type": "in vivo", "settings": "20 to 40 days post-treatment"}, "S. mutans": {"test_system": "S. mutans", "assay": "Short exposure assay (bactericidal effect)", "assay_type": "cell-based, Streptococcus mutans", "settings": "0.05%, 10 minutes exposure, 5000 Colony Forming Units", "protocol": "The short-term antibacterial activity of Citrox was semi-quantitatively assessed in a short exposure assay. A S. mutans culture, diluted in order to contain 5000 Colony Forming Units, was incubated for 10 minutes in presence of the antibacterial substance and extemporarily plated onto a BHI agar plate. Plates were incubated at 37° C. under anaerobe conditions and colony counted. […] Citrox 0.5% reduced the count of CFU to the half (<3000 CFU)."}},
  "data": [
    {"molecule": "ε-Polylysine", "values": [
      {"measurement": "Minimal inhibitory concentration (MIC)", "setting": "Escherichia coli [1]; less than 2% of growth vs untreated control, extrapolated from FIG. 2", "value": 4, "unit": "mg/L"},
      {"measurement": "highest ε-polylysine concentration that does not affect significantly the antibacterial effect of Citrox pretreatment", "setting": "Escherichia coli [2]; plate pretreatment together with Citrox", "value": 30, "unit": "mg/L"},
      {"measurement": "inhibitory effect of pretreatment of a high binding plate", "setting": "Escherichia coli [2]; ε-polylysine alone, titers largely above the MIC of direct exposure", "value": "does not yield any inhibitory effect"},
      {"measurement": "Radius of inhibition rings", "setting": "Streptococcus mutans; 10 mg/L", "value": 0.5, "unit": "mm"},
      {"measurement": "Radius of inhibition rings", "setting": "Streptococcus mutans; 100 mg/L", "value": 2.5, "unit": "mm"},
      {"measurement": "Radius of inhibition rings", "setting": "Streptococcus mutans; 1000 mg/L", "value": 6.5, "unit": "mm"},
      {"measurement": "immobilization of Glucose oxidase onto silicate", "setting": "Glucose oxidase", "value": "promotes immobilization of Glucose oxidase onto silicate"}
    ]},
    {"molecule": "CCN(CC)CCCC(C)Nc1ccnc2cc(Cl)ccc12", "note": "(stereo not shown) [chloroquine]", "values": [
      {"measurement": "infection level", "setting": "[3]", "value": "approx. zero infection"}
    ]},
    {"molecule": "OO", "note": "[Water peroxide, reference compound]", "values": [
      {"measurement": "Radius of inhibition rings", "setting": "Streptococcus mutans; 0.1%", "value": 1.5, "unit": "mm"},
      {"measurement": "Radius of inhibition rings", "setting": "Streptococcus mutans; 1%", "value": 5, "unit": "mm"},
      {"measurement": "colony formation", "setting": "S. mutans", "value": "complete absence of colony formation"}
    ]},
    {"molecule": "CCO", "note": "[Ethanol, reference compound]", "values": [
      {"measurement": "Minimal inhibitory concentration (MIC)", "setting": "Escherichia coli [1]; less than 2% (6% in case of ethanol) of growth, extrapolated from FIG. 2, 1% corresponds to 10 g/L", "value": 12.5, "unit": "%"},
      {"measurement": "Radius of inhibition rings", "setting": "Streptococcus mutans; concentration not given", "value": 5, "unit": "mm"}
    ]}
  ]
}
